Among the data in US9387200B2, “Isothiazole-pyridine derivatives as modulators of HIF (hypoxia inducible factor) activity” (FibroGen, Inc., priority 2008, dated 2016) are inhibition values, retold here.

T1 sequence (Q9GZT9 whole entry, species assumed): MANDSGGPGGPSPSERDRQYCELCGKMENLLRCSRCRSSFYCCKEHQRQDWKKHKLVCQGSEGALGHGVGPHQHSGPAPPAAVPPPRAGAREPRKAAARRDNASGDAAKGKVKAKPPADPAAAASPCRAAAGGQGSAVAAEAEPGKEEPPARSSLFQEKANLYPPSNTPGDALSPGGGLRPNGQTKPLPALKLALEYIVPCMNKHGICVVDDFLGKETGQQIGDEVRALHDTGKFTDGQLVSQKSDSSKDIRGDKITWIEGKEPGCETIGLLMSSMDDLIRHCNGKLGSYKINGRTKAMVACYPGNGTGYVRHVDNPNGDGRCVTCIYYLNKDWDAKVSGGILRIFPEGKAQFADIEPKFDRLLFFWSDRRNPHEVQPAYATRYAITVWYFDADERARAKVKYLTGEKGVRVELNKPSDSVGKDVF

One assay has as its target T1, HIF-PH2 (Homo sapiens, UniProt Q9GZT9).
T1 construct: made in house; host or cells: insect Hi5 cells
Briefly: HIF-PH assay (14CO2 capture, peptide-dependent turnover). Format: biochemical. The note with it: compound concentration 22.22 μM. From the text: Ketoglutaric acid α-[1-^14C]-sodium salt, alpha-ketoglutaric acid sodium salt, and HPLC purified peptide may be obtained from commercial sources, e.g., Perkin-Elmer (Wellesley Mass.), Sigma-Aldrich, and SynPep Corp. (Dublin Calif.), respectively. Peptides for use in the assay may be fragments of HIFα as described above or as disclosed in International Publication WO 2005/118836, incorporated by reference herein. For example, a HIF peptide for use in the HIF-PH assay is [methoxycoumarin]-DLDLEALAPYIPADDDFQL-amide. HIF-PH, e.g., HIF-PH2 (EGLN1), can be expressed in, e.g., insect Hi5 cells, and partially purified, e.g., through a SP ion exchange chromatography column. Enzyme activity is determined by capturing ^14CO2 using an assay described by Kivirikko and Myllyla (1982, Methods Enzymol. 82:245-304). Assay reactions contain 50 mM HEPES (pH 7.4), 100 μM α-ketoglutaric acid sodium salt, 0.30 μCi/mL ketoglutaric acid α-[1-^14C]-sodium salt, 40 μM FeSO4, 1 mM ascorbate, 1541.8 units/mL Catalase, with or without 50 μM peptide substrate and various concentrations of compound of the invention. Reactions are initiated by addition of HIF-PH enzyme.
The peptide-dependent percent turnover is calculated by subtracting percent turnover in the absence of peptide from percent turnover in the presence of substrate peptide. Percent inhibition and IC50 are calculated using peptide-dependent percent turnover at given inhibitor concentrations. Calculation of IC50 values for each inhibitor is conducted using GraFit software (Erithacus Software Ltd., Surrey UK).
Representative compounds of the invention were analyzed using the HIF-PH assay described above. Table I below presents enzyme inhibition data for exemplary compounds against HIF-PH2, a representative HIF prolyl hydroxylase enzyme. By inhibiting HIF prolyl hydroxylase enzymes, compounds of the invention stabilize HIFα, which then combines with HIFβ to form an active transcription factor that increases expression of various genes involved in numerous beneficial cellular processes.
In turn, `Cc1nsc2c(O)c(C(=O)NCC(=O)O)nc(-c3ccccc3)c12` [Example 31, [(7-Hydroxy-3-methyl-4-phenyl-isothiazolo[4,5-c]pyridine-6-carbonyl)-amino]-acetic acid] had an inhibition at 22.22 µM of 98%.
`Cc1nsc2c(-c3cnccn3)nc(C(=O)NCC(=O)O)c(O)c12` [Example 40, [(4-Hydroxy-3-methyl-7-pyrazin-2-yl-isothiazolo[5,4-c]pyridine-5-carbonyl)-amino]-acetic acid]: the inhibition at 22.22 µM was determined as 70%.
On the same count and under the same terms, to `Cc1nsc2c(O)c(C(=O)NCC(=O)O)nc(-c3cnccn3)c12` [Example 41, [(7-Hydroxy-3-methyl-4-pyrazin-2-yl-isothiazolo[4,5-c]pyridine-6-carbonyl)-amino]-acetic acid] belongs 98%; to `O=C(O)CNC(=O)c1nc(-c2ccccc2)c2c(Cn3ccc4ccccc43)nsc2c1O` [Example 42, [(7-Hydroxy-3-indol-1-ylmethyl-4-phenyl-isothiazolo[4,5-c]pyridine-6-carbonyl)-amino]-acetic acid], 100%.
Molecule `O=C(O)CNC(=O)c1ncc2snc(-c3ccccc3)c2c1O` [Example 43, [(4-Hydroxy-3-phenyl-isothiazolo[5,4-c]pyridine-5-carbonyl)-amino]-acetic acid] came in with an inhibition at 22.22 µM of 97%.
For `Cc1nc(C(=O)NCC(=O)O)c(O)c2c(-c3ccccc3)nsc12` [Example 44, [(4-Hydroxy-7-methyl-3-phenyl-isothiazolo[5,4-c]pyridine-5-carbonyl)-amino]-acetic acid], 22.22 µM produced 91% inhibition.
On to `O=C(O)CNC(=O)c1nc(-c2ccccc2)c2snc(-c3ccccc3)c2c1O` [Example 45, [(4-Hydroxy-3,7-diphenyl-isothiazolo[5,4-c]pyridine-5-carbonyl)-amino]-acetic acid], for which the inhibition at 22.22 µM stood at 97%.

Staying with this assay, now noted: compound concentration 200 μM.
Molecule `O=C(O)CNC(=O)c1nc(C(F)(F)F)c2snc(-c3ccc(Cl)cc3)c2c1O` [Example 26, {[3-(4-Chloro-phenyl)-4-hydroxy-7-trifluoromethyl-isothiazolo[5,4-c]pyridine-5-carbonyl]-amino}-acetic acid] registered an inhibition at 200 µM of 100%.
Consider `O=C(O)CNC(=O)c1nc(Br)c2c(-c3ccccc3)nsc2c1O` [Example 27, [(4-Bromo-7-hydroxy-3-phenyl-isothiazolo[4,5-c]pyridine-6-carbonyl)-amino]-acetic acid], for which testing at 200 µM gave an inhibition of 98%.
`Cc1nc(C(=O)NCC(=O)O)c(O)c2c(C)nsc12` [Example 28, [(4-Hydroxy-3,7-dimethyl-isothiazolo[5,4-c]pyridine-5-carbonyl)-amino]-acetic acid] displayed an inhibition at 200 µM of 100%.
In turn, `Cc1nsc2c(O)c(C(=O)NCC(=O)O)nc(C)c12` [Example 29, [(7-Hydroxy-3,4-dimethyl-isothiazolo[4,5-c]pyridine-6-carbonyl)-amino]-acetic acid] yielded an inhibition at 200 µM of 100%.
Still for that read-out and setting: with `Cc1nsc2c(-c3ccccc3)nc(C(=O)NCC(=O)O)c(O)c12` [Example 30, [(4-Hydroxy-3-methyl-7-phenyl-isothiazolo[5,4-c]pyridine-5-carbonyl)-amino]-acetic acid] the figure was 100%; with `Cc1nsc2c(O)c(C(=O)NCC(=O)O)ncc12` [Example 32, [(7-Hydroxy-3-methyl-isothiazolo[4,5-c]pyridine-6-carbonyl)-amino]-acetic acid], 100%.
The same measure, in the same setting: with `O=C(O)CNC(=O)c1ncc2snc(-c3ccccc3F)c2c1O` [Example 33, {[3-(2-Fluoro-phenyl)-4-hydroxy-isothiazolo[5,4-c]pyridine-5-carbonyl]-amino}-acetic acid] the figure was 100%; with `O=C(O)CNC(=O)c1nc(-c2ccccc2)c2snc(-c3ccccc3F)c2c1O` [Example 34, {[3-(2-Fluoro-phenyl)-4-hydroxy-7-phenyl-isothiazolo[5,4-c]pyridine-5-carbonyl]-amino}-acetic acid], 100%; with `O=C(O)CNC(=O)c1nc(-c2ccc(Oc3ccccc3)cc2)c2snc(-c3ccccc3F)c2c1O` [Example 35, {[3-(2-Fluoro-phenyl)-4-hydroxy-7-(4-phenoxy-phenyl)-isothiazolo[5,4-c]pyridine-5-carbonyl]-amino}-acetic acid], 100%.
With `Cc1nc(C(=O)NCC(=O)O)c(O)c2c(-c3ccccc3F)nsc12` [Example 36, {[3-(2-Fluoro-phenyl)-4-hydroxy-7-methyl-isothiazolo[5,4-c]pyridine-5-carbonyl]-amino}-acetic acid], the inhibition at 200 µM was found to be 100%.
On the same count and under the same terms, with `Cc1nsc2c(-c3cccnc3)nc(C(=O)NCC(=O)O)c(O)c12` [Example 37, [(4-Hydroxy-3-methyl-7-pyridin-3-yl-isothiazolo[5,4-c]pyridine-5-carbonyl)-amino]-acetic acid] the figure was 100%.
`Cc1nsc2c(-c3ccccn3)nc(C(=O)NCC(=O)O)c(O)c12` [Example 38, [(4-Hydroxy-3-methyl-7-pyridin-2-yl-isothiazolo[5,4-c]pyridine-5-carbonyl)-amino]-acetic acid] had an inhibition at 200 µM of 74%.
Same read-out and setting: to `C#Cc1nc(C(=O)NCC(=O)O)c(O)c2c(C)nsc12` [Example 39, [(7-Ethynyl-4-hydroxy-3-methyl-isothiazolo[5,4-c]pyridine-5-carbonyl)-amino]-acetic acid] belongs 100%.
Still for that read-out and setting: with `CCc1nc(C(=O)NCC(=O)O)c(O)c2c(C)nsc12` [Example 46, [(7-Ethyl-4-hydroxy-3-methyl-isothiazolo[5,4-c]pyridine-5-carbonyl)-amino]-acetic acid] the figure was 99%; with `CCc1nc(C(=O)NCC(=O)O)c(O)c2snc(C)c12` [Example 47, [(4-Ethyl-7-hydroxy-3-methyl-isothiazolo[4,5-c]pyridine-6-carbonyl)-amino]-acetic acid], 99%.

A word on the inhibition: it is the drop in the measured response relative to a control, in per cent.
